Reference: patent US20260042764A1, “COMPOSITIONS AND METHODS FOR INHIBITION OF KRAS” (TheRas, Inc., priority 2022, published 2026)

Molecular target: T1, Avi-KRAS G12D (2-169) GTP/RAF1 RBD-3xFLAG (51-131) (Homo sapiens, UniProt P01116, G12D)
T1 construct: Avi-KRAS G12D (2-169)
Test: Raf1-KRAS G12D-GTP disruption HTRF assay (Biological Example 3)
Type: binding
Details: KRAS G12D, GTP-loaded
In short: (§1)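 50 nM Avi-KRAS (2-169) GTP/RAF1 RBD complex; 75 nM RBD-Avi; pH 7.5 Tris buffer, 10% DMSO; cpd 30 μM top, 3x, 10 pts; 1 h RT, 700 rpm; HTRF, % of DMSO.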

T1 sequence (P01116 2-169 isoform P01116-2 G12D): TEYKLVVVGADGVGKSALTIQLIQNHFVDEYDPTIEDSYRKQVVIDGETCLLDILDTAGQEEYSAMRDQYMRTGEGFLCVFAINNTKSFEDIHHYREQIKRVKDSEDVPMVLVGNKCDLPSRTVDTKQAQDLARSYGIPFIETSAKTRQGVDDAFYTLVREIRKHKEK

Compound | IC50 [nM]
CCN(c1nc(OC[C@@]23CCCN2C[C@H](F)C3)nc2c(F)c(-c3ccc(F)c4sc(N)c(C#N)c34)c(C(F)(F)F)cc12)[C@H]1CCN(C(=O)OC)C1 [Compound 394] | 100 to 1000
CCN(c1nc(OC[C@@]23CCCN2C[C@H](F)C3)nc2c(F)c(-c3ccc(F)c4sc(N)c(C#N)c34)c(C(F)(F)F)cc12)[C@H]1CCN(C(=O)C2CC2(F)F)C1 (some centres unmarked) [Compound 581] | ≤ 100
N#Cc1c(N)sc2c(F)ccc(-c3c(C(F)(F)F)cc4c(N5CCn6nc(C(=O)N7CCOCC7)cc6C5)nc(OCC56CCCN5CC(F)C6)nc4c3F)c12 (centres unmarked) [Compound 646] | 100 to 1000
CCN(c1nc(OC[C@@]23CCCN2C[C@H](F)C3)nc2c(F)c(-c3ccc(F)c4sc(N)c(C#N)c34)c(C(F)(F)F)cc12)[C@H]1CCN(C(=O)C2C[C@@H]2F)C1 (some centres unmarked) [Compound 692] | ≤ 100
N#Cc1c(N)sc2c(F)ccc(-c3c(C(F)(F)F)cc4c(N(C5CC5)[C@H]5CCS(=O)(=O)C5)nc(OC[C@@]56CCCN5C[C@H](F)C6)nc4c3F)c12 [Compound 702] | 1000 to 10000

Molecular target: T2, Avi-KRAS G12R (1-169) GppNHp/RAF1 RBD-3xFLAG (52-151) (Homo sapiens, UniProt P01116, G12R)
T2 construct: Avi-KRAS G12R (1-169)
Test: Raf1-KRAS G12R-GppNHP disruption HTRF assay (Biological Example 1)
Type: binding
Details: KRAS G12R, GppNHp-loaded; class symbols
In short: (§2)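 Using HTRF, the loss of KRAS–effector RAF1 complex was quantified in 50 mM Tris pH 7.5 buffer with 100 mM NaCl and 0.1% BSA. The protein step and reagent step ran 1 h each at room temperature. Activity normalized with DMSO taken as 100%.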

T2 sequence (P01116 1-169 isoform P01116-2 G12R): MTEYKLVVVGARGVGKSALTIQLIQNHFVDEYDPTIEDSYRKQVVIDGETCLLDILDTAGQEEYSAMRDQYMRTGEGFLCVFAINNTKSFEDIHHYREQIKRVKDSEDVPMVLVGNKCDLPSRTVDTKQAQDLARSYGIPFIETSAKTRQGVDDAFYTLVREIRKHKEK

Compound | IC50 [nM]
CCN(c1nc(OC[C@@]23CCCN2C[C@H](F)C3)nc2c(F)c(-c3ccc(F)c4sc(N)c(C#N)c34)c(C(F)(F)F)cc12)[C@H]1CCN(C(=O)C2CC2(F)F)C1 (some centres unmarked) [Compound 581] | < 100
N#Cc1c(N)sc2c(F)ccc(-c3c(C(F)(F)F)cc4c(N5CCn6nc(C(=O)N7CCOCC7)cc6C5)nc(OCC56CCCN5CC(F)C6)nc4c3F)c12 (centres unmarked) [Compound 646] | < 100
CCN(c1nc(OC[C@@]23CCCN2C[C@H](F)C3)nc2c(F)c(-c3ccc(F)c4sc(N)c(C#N)c34)c(C(F)(F)F)cc12)[C@H]1CCN(C(=O)C2C[C@@H]2F)C1 (some centres unmarked) [Compound 692] | < 100
N#Cc1c(N)sc2c(F)ccc(-c3c(C(F)(F)F)cc4c(N(C5CC5)[C@H]5CCS(=O)(=O)C5)nc(OC[C@@]56CCCN5C[C@H](F)C6)nc4c3F)c12 [Compound 702] | 1000 to 10000

Same assay, conditions: KRAS G12R-GppNHp/RAF1 RBD HTRF

Compound | IC50 [nM]
CCN(c1nc(OC[C@@]23CCCN2C[C@H](F)C3)nc2c(F)c(-c3ccc(F)c4sc(N)c(C#N)c34)c(C(F)(F)F)cc12)[C@H]1CCN(C(=O)OC)C1 [Compound 394] | < 100

Molecular target: T3, Avi-KRAS G12V (1-169) GppNHp/RAF1 RBD-3xFLAG (52-151) (Homo sapiens, UniProt P01116, G12V)
T3 construct: Avi-KRAS G12V (1-169)
Test: Raf1-KRAS G12V-GppNHP disruption HTRF assay (Biological Example 1)
Type: binding
Details: KRAS G12V, GppNHp-loaded; class symbols
In short: as §2

T3 sequence (P01116 1-169 isoform P01116-2 G12V): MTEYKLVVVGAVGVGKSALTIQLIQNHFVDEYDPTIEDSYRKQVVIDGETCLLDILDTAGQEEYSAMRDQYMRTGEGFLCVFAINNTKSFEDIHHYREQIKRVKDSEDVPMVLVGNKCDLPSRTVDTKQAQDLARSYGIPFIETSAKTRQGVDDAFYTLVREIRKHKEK

Compound | IC50 [nM]
CCN(c1nc(OC[C@@]23CCCN2C[C@H](F)C3)nc2c(F)c(-c3ccc(F)c4sc(N)c(C#N)c34)c(C(F)(F)F)cc12)[C@H]1CCN(C(=O)C2CC2(F)F)C1 (some centres unmarked) [Compound 581] | < 100
N#Cc1c(N)sc2c(F)ccc(-c3c(C(F)(F)F)cc4c(N5CCn6nc(C(=O)N7CCOCC7)cc6C5)nc(OCC56CCCN5CC(F)C6)nc4c3F)c12 (centres unmarked) [Compound 646] | < 100
CCN(c1nc(OC[C@@]23CCCN2C[C@H](F)C3)nc2c(F)c(-c3ccc(F)c4sc(N)c(C#N)c34)c(C(F)(F)F)cc12)[C@H]1CCN(C(=O)C2C[C@@H]2F)C1 (some centres unmarked) [Compound 692] | < 100
N#Cc1c(N)sc2c(F)ccc(-c3c(C(F)(F)F)cc4c(N(C5CC5)[C@H]5CCS(=O)(=O)C5)nc(OC[C@@]56CCCN5C[C@H](F)C6)nc4c3F)c12 [Compound 702] | 1000 to 10000

Same assay, conditions: KRAS G12V-GppNHp/RAF1 RBD HTRF

Compound | IC50 [nM]
CCN(c1nc(OC[C@@]23CCCN2C[C@H](F)C3)nc2c(F)c(-c3ccc(F)c4sc(N)c(C#N)c34)c(C(F)(F)F)cc12)[C@H]1CCN(C(=O)OC)C1 [Compound 394] | < 100

Molecular target: T4, Avi-KRAS G12V (2-169) GTP/RAF1 RBD-3xFLAG (51-131) (Homo sapiens, UniProt P01116, G12V)
T4 construct: Avi-KRAS G12V (2-169)
Test: Raf1-KRAS G12V-GTP disruption HTRF assay (Biological Example 3)
Type: binding
Details: KRAS G12V, GTP-loaded
In short: as §1

T4 sequence (P01116 2-169 isoform P01116-2 G12V): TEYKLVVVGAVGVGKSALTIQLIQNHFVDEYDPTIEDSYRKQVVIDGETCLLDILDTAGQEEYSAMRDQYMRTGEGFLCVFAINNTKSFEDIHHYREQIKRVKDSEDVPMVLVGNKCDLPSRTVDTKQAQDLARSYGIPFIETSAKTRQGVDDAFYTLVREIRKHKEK

Compound | IC50 [nM]
CCN(c1nc(OC[C@@]23CCCN2C[C@H](F)C3)nc2c(F)c(-c3ccc(F)c4sc(N)c(C#N)c34)c(C(F)(F)F)cc12)[C@H]1CCN(C(=O)OC)C1 [Compound 394] | 100 to 1000
CCN(c1nc(OC[C@@]23CCCN2C[C@H](F)C3)nc2c(F)c(-c3ccc(F)c4sc(N)c(C#N)c34)c(C(F)(F)F)cc12)[C@H]1CCN(C(=O)C2CC2(F)F)C1 (some centres unmarked) [Compound 581] | ≤ 100
N#Cc1c(N)sc2c(F)ccc(-c3c(C(F)(F)F)cc4c(N5CCn6nc(C(=O)N7CCOCC7)cc6C5)nc(OCC56CCCN5CC(F)C6)nc4c3F)c12 (centres unmarked) [Compound 646] | 100 to 1000
CCN(c1nc(OC[C@@]23CCCN2C[C@H](F)C3)nc2c(F)c(-c3ccc(F)c4sc(N)c(C#N)c34)c(C(F)(F)F)cc12)[C@H]1CCN(C(=O)C2C[C@@H]2F)C1 (some centres unmarked) [Compound 692] | ≤ 100
N#Cc1c(N)sc2c(F)ccc(-c3c(C(F)(F)F)cc4c(N(C5CC5)[C@H]5CCS(=O)(=O)C5)nc(OC[C@@]56CCCN5C[C@H](F)C6)nc4c3F)c12 [Compound 702] | > 10000

Molecular target: T5, Avi-KRAS WT (2-169) GTP/RAF1 RBD-3xFLAG (51-131) (Homo sapiens, UniProt P01116)
T5 construct: Avi-KRAS WT (2-169)
Test: Raf1-KRAS WT-GTP disruption HTRF assay (Biological Example 3)
Type: binding
Details: KRAS WT, GTP-loaded
In short: as §1

T5 sequence (P01116 2-169 isoform P01116-2): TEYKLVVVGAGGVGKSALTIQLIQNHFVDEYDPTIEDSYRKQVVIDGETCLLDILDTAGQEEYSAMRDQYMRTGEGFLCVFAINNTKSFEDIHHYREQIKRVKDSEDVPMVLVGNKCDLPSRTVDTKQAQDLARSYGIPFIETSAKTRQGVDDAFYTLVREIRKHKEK

Compound | IC50 [nM]
CCN(c1nc(OC[C@@]23CCCN2C[C@H](F)C3)nc2c(F)c(-c3ccc(F)c4sc(N)c(C#N)c34)c(C(F)(F)F)cc12)[C@H]1CCN(C(=O)OC)C1 [Compound 394] | 100 to 1000
CCN(c1nc(OC[C@@]23CCCN2C[C@H](F)C3)nc2c(F)c(-c3ccc(F)c4sc(N)c(C#N)c34)c(C(F)(F)F)cc12)[C@H]1CCN(C(=O)C2CC2(F)F)C1 (some centres unmarked) [Compound 581] | 100 to 1000
N#Cc1c(N)sc2c(F)ccc(-c3c(C(F)(F)F)cc4c(N5CCn6nc(C(=O)N7CCOCC7)cc6C5)nc(OCC56CCCN5CC(F)C6)nc4c3F)c12 (centres unmarked) [Compound 646] | 1000 to 10000
CCN(c1nc(OC[C@@]23CCCN2C[C@H](F)C3)nc2c(F)c(-c3ccc(F)c4sc(N)c(C#N)c34)c(C(F)(F)F)cc12)[C@H]1CCN(C(=O)C2C[C@@H]2F)C1 (some centres unmarked) [Compound 692] | ≤ 100
N#Cc1c(N)sc2c(F)ccc(-c3c(C(F)(F)F)cc4c(N(C5CC5)[C@H]5CCS(=O)(=O)C5)nc(OC[C@@]56CCCN5C[C@H](F)C6)nc4c3F)c12 [Compound 702] | > 10000

System: GP2d cells (KRAS G12D)
Test: Cell-based pERK HTRF assay in GP2d cell (Biological Example 2)
Details: GP2d, GP2d (KRAS G12D) cells
In short: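 Phospho-ERK is measured by HTRF following a 60 min compound exposure at 0.25% DMSO, with a 9-point half-log curve topping at 1 μM or 100 nM.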

Compound | IC50 [nM]
CCN(c1nc(OC[C@@]23CCCN2C[C@H](F)C3)nc2c(F)c(-c3ccc(F)c4sc(N)c(C#N)c34)c(C(F)(F)F)cc12)[C@H]1CCN(C(=O)OC)C1 [Compound 394] | < 100
CCN(c1nc(OC[C@@]23CCCN2C[C@H](F)C3)nc2c(F)c(-c3ccc(F)c4sc(N)c(C#N)c34)c(C(F)(F)F)cc12)[C@H]1CCN(C(=O)C2CC2(F)F)C1 (some centres unmarked) [Compound 581] | < 100
N#Cc1c(N)sc2c(F)ccc(-c3c(C(F)(F)F)cc4c(N5CCn6nc(C(=O)N7CCOCC7)cc6C5)nc(OCC56CCCN5CC(F)C6)nc4c3F)c12 (centres unmarked) [Compound 646] | < 100
CCN(c1nc(OC[C@@]23CCCN2C[C@H](F)C3)nc2c(F)c(-c3ccc(F)c4sc(N)c(C#N)c34)c(C(F)(F)F)cc12)[C@H]1CCN(C(=O)C2C[C@@H]2F)C1 (some centres unmarked) [Compound 692] | < 100
N#Cc1c(N)sc2c(F)ccc(-c3c(C(F)(F)F)cc4c(N(C5CC5)[C@H]5CCS(=O)(=O)C5)nc(OC[C@@]56CCCN5C[C@H](F)C6)nc4c3F)c12 [Compound 702] | < 100

Same assay, conditions: GP2d, GP2d (KRAS G12D) cells, pERK HTRF

Compound | IC50 [nM]
CCN(c1nc(OC[C@@]23CCCN2C[C@H](F)C3)nc2c(F)c(-c3ccc(F)c4sc(N)c(C#N)c34)c(C(F)(F)F)cc12)[C@H]1CCN(C(=O)OC)C1 [Compound 394] | < 100

Same assay, conditions: GP2d, GP2d (KRAS G12D) cells, pERK HTRF; class symbols

Compound | IC50 [nM]
CCN(c1nc(OC[C@@]23CCCN2C[C@H](F)C3)nc2c(F)c(-c3ccc(F)c4sc(N)c(C#N)c34)c(C(F)(F)F)cc12)[C@H]1CCN(C(=O)C2CC2(F)F)C1 (some centres unmarked) [Compound 581] | < 100
N#Cc1c(N)sc2c(F)ccc(-c3c(C(F)(F)F)cc4c(N5CCn6nc(C(=O)N7CCOCC7)cc6C5)nc(OCC56CCCN5CC(F)C6)nc4c3F)c12 (centres unmarked) [Compound 646] | < 100
CCN(c1nc(OC[C@@]23CCCN2C[C@H](F)C3)nc2c(F)c(-c3ccc(F)c4sc(N)c(C#N)c34)c(C(F)(F)F)cc12)[C@H]1CCN(C(=O)C2C[C@@H]2F)C1 (some centres unmarked) [Compound 692] | < 100
N#Cc1c(N)sc2c(F)ccc(-c3c(C(F)(F)F)cc4c(N(C5CC5)[C@H]5CCS(=O)(=O)C5)nc(OC[C@@]56CCCN5C[C@H](F)C6)nc4c3F)c12 [Compound 702] | < 100
